Measured values taken from patent US8809538B2, “Piperidine-containing compounds and use thereof” (Array BioPharma Inc., priority 2009, dated 2014).

Tests used:
[1] = system: high fat-fed obese mice (C57BL/6-DIO); assay: Assay of an anti-diabetic effect in DIO (diet-induced obese) mice; format: in vivo; conditions: oral, 30 or 100 mg/kg b.i.d. for 15 days, overnight fasting state, dose-dependently
Source text: (1) Assay of an Anti-Diabetic Effect of the Compounds in DIO (Diet-Induced Obese) Mice
Male, 12-weeks old high fat-fed obese mice (C57BL/6-DIO, Charles River Japan) were orally administered with the compounds of the present invention twice a day for 15 days. During the experiment, mice were provided high fat pellet diet (D12492, Research Diets) and tap water from bottle of feed water ad libitum. On the first day of the experiment, blood samples were collected from tail vein using a microcapillary to measure plasma glucose concentration. Based on plasma glucose concentration, mice were divided into some groups (five mice per group) and started dosing. The dosing was carried out by oral gavage, after suspending the compounds of the present invention in the previously described vehicle. The control group received only the vehicle. After 15 days from starting the dosing, plasma samples were collected from tail vein at overnight fasting state. Plasma glucose and insulin levels were measured with commercial kits (glucose, Glucose CH-Test Wako®, Wako Pure Chemical Industries, Ltd.; insulin, Rat Insulin ELISA Kit, Morinaga Institute of Biological Science Inc.).

Crl: CD(SD) rats = assay: Evaluation of hepatic damage by the compounds in rats; format: in vivo; conditions: 100 mg/kg orally once daily for 4 days, blood at the day after the final dosing
Description: (3) Evaluation of Hepatic Damage by the Compounds in Rats
The compounds of the present invention were administered orally to male Crl: CD(SD) rats with four animals per group once daily for 4 days at dose levels of 0 (control) and 100 mg/kg to investigate hepatotoxicity. The compounds of the present invention were dissolved in 70% Wellsolve (solubilizer, Celeste Corporation) containing 30% DMSO (dimethyl sulfoxide) and administered orally at a dose volume of 10 mL/kg. The control group was treated with the vehicle at the same dosing volume.
Blood was drawn from the abdominal vein of each animal at the day after the final dosing. The plasma was separated by centrifugation at 13,684×g for 5 min at 4° C. The plasma concentration of aspartate aminotransferase (AST) and alanine aminotransferase (ALT), biochemical markers of hepatic damage, were measured.

[2] = system: rat transient focal cerebral ischemia model; assay: Assay of a neuroprotective effect in the rat transient focal cerebral ischemia model (MCA occlusion); format: in vivo, Sprague Dawley rats; conditions: 120 min MCA occlusion, 100 mg/kg orally 1 hour before and 12 hours after MCA occlusion, evaluated at 24 hours after MCA occlusion
Description: (2) Assay of a Neuroprotective Effect of the Compound in the Rat Transient Focal Cerebral Ischemia Model.
Transient focal cerebral ischemia (120 min) was induced by intraluminal middle cerebral artery (hereinafter abbreviated to MCA) occlusion using the method of Koizumi et al., (in Japanese Journal of Stroke 1986; 8:1-8). Male Sprague Dawley rats (7 weeks old; Charles River Japan) were used. Under conditions of 30% oxygen and 70% air, the animals inhaled 2.5% halothane (Takeda Chemical Industries, Ltd.) through a halothane vaporizer (Shinano Works). Under the anesthesia, the left common carotid artery (hereinafter abbreviated to CCA), the external carotid artery (hereinafter abbreviated to ECA) and the internal carotid artery (hereinafter abbreviated to ICA) were isolated from surrounding connective tissue, then the CCA and the ECA were ligated with surgical thread. […] Immediately before MCA reperfusion neurological score of animals were observed using the method of Yonemori et al., (in J Cereb Blood Flow Metab 1996; 16: 973-80.) and animals that scored less than 5 were excluded due to insufficient occlusion. […]
At 24 hours after MCA occlusion, neurological score were evaluated. […] The cerebral infarct area was identified in scanned images and measured using image analysis software (Photoshop 5.5/NIH image 1.63) to determine the infarct area per slice. […]

CCOc1nc(C(=O)NCC2CCN(Cc3cnc(-c4ccccn4)s3)CC2)cc(N)c1C#N [Example 115, 4-amino-5-cyano-6-ethoxy-N-((1-((2-(pyridin-2-yl)thiazol-5-yl)methyl)piperidin-4-yl)methyl)picolinamide]
fasted plasma glucose level [1]: significantly decreased | fasted plasma insulin level [1]: significantly decreased | plasma alanine aminotransferase (ALT) level (Crl: CD(SD) rats): not increased | plasma aspartate aminotransferase (AST) level (Crl: CD(SD) rats): not increased | cerebral infarct volume [2]: significant preventive effect | neurological score [2]: significant preventive effect

CCOc1nc(C(=O)NCC2CCN(Cc3sc(-c4ccccn4)nc3CN(C)C)CC2)cc(N)c1C#N [Example 118, 4-amino-5-cyano-N-((1-((4-((dimethylamino)methyl)-2-(pyridin-2-yl)thiazol-5-yl)methyl)piperidin-4-yl)methyl)-6-ethoxypicolinamide]
plasma alanine aminotransferase (ALT) level (Crl: CD(SD) rats): not increased | plasma aspartate aminotransferase (AST) level (Crl: CD(SD) rats): not increased
